Measured values: US20190022039A1, “COMPOUND HAVING ENHANCING ACTIVITY FOR GLUCAGON-LIKE PEPTIDE-1 RECEPTOR ACTIONS” (AJINOMOTO CO., INC., priority 2016, published 2019)

Molecular target: T1, human GLP-1R (Homo sapiens, UniProt P43220)
T1 construct: expressed in transfected cells; host or cells: PEAK RAPID-derived Gα15-trans48 LD stably expressing cells (PRG48), transiently transfected with Lipofectamine 2000
Assay: GLP-1 receptor in vitro calcium assay (intracellular free calcium concentration change induced via GLP-1 receptor)
Assay type: cell-based
Conditions: for EC50: PRG48 cells transfected with human GLP-1R, compound added with 250 pM GLP-1, Ca2+ response ΔF/F, read-out: Ca EC50 value; for GLP-1 receptor action enhancing activity (vs BETP): intensity compared to BETP, activity of BETP as 1
Protocol: The supernatant was removed by centrifugation (1,200 rpm, 3 min), and the cells were suspended at 4×10^6 cells/mL in 5% FBS DMEM/Ham's F-12. 1.0 mL thereof was seeded in a 15 cm dish and cultured (37° C., 5% CO2) overnight. The next day, the medium of the cultured PRG48 cells was replaced with 5% FBS DMEM/Ham's F-12 medium (30 mL), human GLP-1R gene mixture solution (GLP-1R/pc.DNA3.1(+) 60 μg) prepared using 6.0 mL of Opti-MEM (invitrogen) and 120 μL of Lipofectamin 2000 (invitrogen) was slowly added to the cells, and cultured (37° C., 5% CO2) for 6 hr to introduce the gene. […] The cells were counted, suspended at 0.5×10^6 cells/mL in 5% FBS DMEM/Ham's F-12 medium, and seeded in each well of D-Lysine coat 96 well plate (BD Bioscience) at 7.0×10^4 cells. After static adhesion at room temperature for 1 hr, the cells were cultured overnight (37° C., 5% CO2). The medium in the Cultured 96 well was entirely discarded, 150 μL of intracellular calcium measurement staining solution Calcium assay kit Express (Molecular Device) diluted 80-fold with Assay buffer (20 mM HEPES, 146 mM NaCl, 1 mM MgSO4, 1.39 mM glucose, 1 mM CaCl2, 2.5 mM Probenecid, 0.05% Casein Enzymatic Hydrolysate) was added, and the mixture was stood at 37° C. for 30 min, and then at room temperature for 45 min to perform staining. After staining, 250 pM GLP-1 and the compound were added and Ca^2+ response was observed by using FDSSμCELL (Hamamatsu Photonics K.K.). Each evaluation compound was dissolved in DMSO, further diluted with Assay buffer and used.
For evaluation, the fluorescence values (Ex480:Em540) before and after addition were measured, and changes in the intracellular free calcium concentration produced via GLP-1R receptor by the addition were quantitatively examined. For the measurement and analysis of the fluorescence values, a soft (FDSS7000EX) attached to the FDSSμCELL was used, and ΔF/F value ((maximum fluorescence value after stimulation−minimum fluorescence value after stimulation)/fluorescence value before stimulation) was calculated. Using the obtained ΔF/F values, EC50 value was calculated by Prism5.

T1 sequence (P43220 24-463): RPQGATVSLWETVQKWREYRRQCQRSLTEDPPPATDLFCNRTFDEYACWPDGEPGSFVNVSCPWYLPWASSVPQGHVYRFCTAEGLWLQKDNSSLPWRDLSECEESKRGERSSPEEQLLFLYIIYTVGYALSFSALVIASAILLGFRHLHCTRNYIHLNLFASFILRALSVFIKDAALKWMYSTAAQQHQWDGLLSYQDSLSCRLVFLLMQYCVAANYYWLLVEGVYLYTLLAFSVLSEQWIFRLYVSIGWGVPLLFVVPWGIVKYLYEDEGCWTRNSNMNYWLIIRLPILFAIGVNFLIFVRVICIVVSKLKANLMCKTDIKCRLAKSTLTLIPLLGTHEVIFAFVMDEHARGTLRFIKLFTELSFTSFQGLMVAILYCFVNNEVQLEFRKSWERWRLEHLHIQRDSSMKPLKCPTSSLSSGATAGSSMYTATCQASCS

Row | EC50 [µM] | GLP-1 receptor action enhancing activity (vs BETP) | SMILES
1 | 1.9 | 14 | CC(C)(C)OC(=O)[C@H](Cc1ccccc1)NC(=O)Nc1ccc(NS(=O)(=O)Cc2ccccc2)cc1 [Compound 74]
2 | 0.13 | 187 | CCCCCCCNC(=O)[C@@H](Cc1ccccc1)NC(=O)Nc1ccc(NS(=O)(=O)c2ccc(C)cc2)cc1 [Compound 6]
3 | 0.064 | 391 | CCCCC(CC)CNC(=O)[C@@H](Cc1ccccc1)NC(=O)Nc1ccc(NS(=O)(=O)c2ccc(C)cc2)cc1 (some centres unmarked) [Compound 34]
4 | 1.1 | 24 | Cc1ccc(S(=O)(=O)Nc2ccc(NC(=O)N[C@H](Cc3ccccc3)C(=O)NCc3ccc(F)cc3)cc2)cc1 [Compound 26]
5 | 0.056 | 446 | CSCCCNC(=O)[C@@H](CC1CCCCC1)NC(=O)Nc1ccc(NS(=O)(=O)c2ccc(C(C)(C)C)cc2)cc1 [Compound 91]
6 | 0.0034 | 7462 | CCCCCCCCNC(=O)[C@H](CC1CCCCC1)NC(=O)Nc1ccc(NS(=O)(=O)c2ccc(C(C)(C)C)cc2)cc1 [Compound 57]
7 | 0.65 | 39 | COC(C)(C)CNC(=O)[C@@H](Cc1ccccc1)NC(=O)Nc1ccc(NS(=O)(=O)c2ccc(C)cc2)cc1 [Compound 9]
8 | 0.36 | 71 | CCCCCCNC(=O)[C@@H](CC1CCCCC1)NC(=O)Nc1ccc(NS(=O)(=O)c2ccc(C)cc2)cc1 [Compound 18]
9 | 0.0044 | 5731 | CCCCCCNc1ccc(S(=O)(=O)Nc2cccc(NC(=O)N[C@H](Cc3c[nH]c4ccccc34)C(=O)NC(C)CCCC(C)C)c2)cn1 (some centres unmarked) [Compound 110]
10 | 1.6 | 15 | Cc1ccc(S(=O)(=O)Nc2ccc(NC(=O)N[C@H](CC(C)C)C(=O)OC(C)(C)C)cc2)cc1 [Compound 64]
11 | 1.8 | 14 | Cc1ccc(S(=O)(=O)Nc2ccc(NC(=O)N[C@H](CC(C)C)C(=O)NCCc3cccs3)cc2)cc1 [Compound 28]
12 | 0.045 | 555 | CCCCCCNC(=O)[C@@H](CC1CCCCC1)NC(=O)Nc1cccc(NS(=O)(=O)c2ccc(C(C)(C)C)cc2)c1 [Compound 93]
13 | 1.6 | 16 | Cc1cccc(S(=O)(=O)Nc2ccc(NC(=O)N[C@@H](Cc3ccccc3)C(=O)OC(C)(C)C)cc2)c1 [Compound 77]
14 | 0.011 | 2206 | CSCCCN(c1ccc(NC(=O)N[C@H](Cc2c[nH]c3ccccc23)C(=O)NC(C)CCCC(C)C)cc1)S(=O)(=O)c1ccc(C(C)(C)C)cc1 (some centres unmarked) [Compound 112]
15 | 0.44 | 56 | CCCCCCNc1ccc(S(=O)(=O)Nc2ccc(NC(=O)N[C@H](CC3CCCCC3)C(=O)NC(C)CCCC(C)C)cc2)cn1 (some centres unmarked) [Compound 105]
16 | 0.94 | 27 | Cc1ccc(S(=O)(=O)Nc2ccc(NC(=O)N[C@H](CC(C)C)C(=O)NCC3CCCCC3)cc2)cc1 [Compound 29]
17 | 1.2 | 22 | Cc1ccc(S(=O)(=O)Nc2ccc(NC(=S)N[C@H](Cc3ccccc3)C(=O)OC(C)(C)C)cc2)cc1 [Compound 68]
18 | 0.092 | – | Cc1ccc(S(=O)(=O)Nc2ccc(NC(=O)N[C@H](Cc3ccc(Cl)cc3)C(=O)NC3CCCCCC3)cc2)cc1 [Compound 42]
19 | 0.0043 | 5794 | CCCOc1ccc(-c2noc([C@H](CC3CCCCC3)NC(=O)Nc3ccc(NS(=O)(=O)c4ccc(C(C)(C)C)cc4)cc3)n2)cc1 [Compound 83]
20 | 1.5 | 17 | CCCC[C@@H](NC(=O)[C@@H](Cc1ccccc1)NC(=O)Nc1ccc(NS(=O)(=O)c2ccc(C)cc2)cc1)C(=O)OC [Compound 33]

Row | EC50 [µM] | GLP-1 receptor action enhancing activity (vs BETP) | SMILES
21 | 0.0046 | – | CC(C)CCCC(C)NC(=O)[C@H](Cc1ccc(Cl)cc1)NC(=O)Nc1ccc(NS(=O)(=O)c2ccc(C(C)(C)C)cc2)cc1 (some centres unmarked) [Compound 58]
22 | 0.015 | 1710 | Cc1ccc(S(=O)(=O)Nc2ccc(NC(=O)N[C@H](Cc3ccccc3)C(=O)NC(C)(C)C34CC5CC(CC(C5)C3)C4)cc2)cc1 [Compound 61]
23 | 0.01 | 2534 | CCCCC(CC)CNC(=O)[C@H](Cc1c[nH]c2ccccc12)NC(=O)Nc1ccc(NS(=O)(=O)c2ccc(C(C)(C)C)cc2)cc1 (some centres unmarked) [Compound 49]
24 | 1.7 | 15 | Cc1ccc(S(=O)(=O)Nc2ccc(NC(=O)N[C@H](Cc3ccccc3)C(=O)NCCc3ccccc3)cc2)cc1 [Compound 13]
25 | 0.072 | 350 | CCCCC(CC)CNC(=O)[C@@H](Cc1c[nH]c2ccccc12)NC(=O)Nc1ccc(NS(=O)(=O)c2ccc(C(C)(C)C)cc2)cc1F (stereo partly drawn) [Compound 98, (2R)-2-[[4-[(4-tert-butylphenyl)sulfonylamino]-2-fluoro-phenyl]carbamoylamino]-N-(2-ethylhexyl)-3-(1H-indol-3-yl)propanamide]
26 | 0.18 | 140 | CCCCC(CC)CNC(=O)[C@@H](CC(C)C)NC(=O)Nc1ccc(NS(=O)(=O)c2ccc(C)cc2)cc1 (some centres unmarked) [Compound 37]
27 | 0.0015 | 17107 | CC(C)CCCC(C)NC(=O)[C@@H](CC1CCCCC1)NC(=O)N(CC(=O)O)c1ccc(NS(=O)(=O)c2ccc(C(C)(C)C)cc2)cc1 (stereo partly drawn) [Compound 108, 2-(4-[(4-tert-butylphenyl)sulfonylamino]-N-{[(1R)-1-(cyclohexylmethyl)-2-(1,5-dimethylhexylamino)-2-oxo-ethyl]carbamoyl}anilino)acetic acid]
28 | 0.13 | 195 | CC(C)CCCC(C)NC(=O)[C@@H](Cc1cccnc1)NC(=O)Nc1cccc(NS(=O)(=O)c2ccc(C(C)(C)C)cc2)c1 (some centres unmarked) [Compound 103]
29 | 0.016 | – | Cc1ccc(S(=O)(=O)Nc2ccc(NC(=O)N[C@H](Cc3ccc(Cl)cc3)C(=O)NCCC3CCCCC3)cc2)cc1 [Compound 46]
30 | 1.3 | 19 | Cc1ccc(S(=O)(=O)Nc2ccc(NC(=O)N[C@H](CC(C)C)C(=O)NC3CCCCCC3)cc2)cc1 [Compound 44]
31 | 0.011 | 2311 | CCCCCCNc1ccc(S(=O)(=O)Nc2cccc(NC(=O)N[C@H](CC3CCCCC3)C(=O)NC(C)CCCC(C)C)c2)cn1 (some centres unmarked) [Compound 109]
32 | 0.18 | 137 | CCCCCC(C)NC(=O)[C@@H](Cc1ccccc1)NC(=O)Nc1ccc(NS(=O)(=O)c2ccc(C)cc2)cc1 (some centres unmarked) [Compound 54]
33 | 0.66 | 38 | Cc1ccc(S(=O)(=O)Nc2ccc(NC(=O)N[C@@H](Cc3c[nH]c4ccccc34)C(=O)OC(C)(C)C)cc2)cc1 [Compound 67]
34 | 0.52 | 49 | CCCCCCNC(=O)[C@@H](CCCC)NC(=O)Nc1ccc(NS(=O)(=O)c2ccc(C)cc2)cc1 [Compound 16]
35 | 0.38 | 67 | CCC(CC)CNC(=O)[C@@H](Cc1ccccc1)NC(=O)Nc1ccc(NS(=O)(=O)c2ccc(C)cc2)cc1 [Compound 10]
36 | 0.051 | 490 | CCCCCCCCNC(=O)[C@@H](Cc1ccccc1)NC(=O)Nc1ccc(NS(=O)(=O)c2ccc(C)cc2)cc1 [Compound 5]
37 | 0.72 | 35 | COCCCNC(=O)[C@@H](CC1CCCCC1)NC(=O)Nc1ccc(NS(=O)(=O)c2ccc(C(C)(C)C)cc2)cc1 [Compound 107]
38 | 0.022 | 1149 | Cc1ccc(S(=O)(=O)Nc2ccc(NC(=O)N[C@H](CC3CCCCC3)C(=O)NCCC3CCCCC3)cc2)cc1 [Compound 45]
39 | 0.16 | – | CCCCCCNC(=O)[C@@H](Cc1ccc(Cl)cc1)NC(=O)Nc1ccc(NS(=O)(=O)c2ccc(C)cc2)cc1 [Compound 19]
